The compounds below were run on Human Pancreatic cancer cells (MPanc) (assay: Anti-cancer efficacy in athymic nude mice (subcutaneous pancreatic tumor implant)). Conditions: 10 ug/implant in Matrigel near the tumor implant, tumors excised after 2 weeks, n=6 per group, Control 291 ± 25.
Type: in vivo
Source text: Human Pancreatic cancer cells (MPanc) were implanted subcutaneously in nude mice at 1 million cells per site and after tumor growth to 150-200 mm3, animals were implanted with the various Nano composites near by the tumor implant.
The preceding data represents mean tumor weight±Standard Deviation (SD), n=6 per group, after 2 weeks of pancreatic cancer cell implant at 1 million per animals. Nano composites were implanted in a Matrigel near by the tumor implants

Compound | Mean Pancreatic Tumor Weight (mg) ± SD [mg]
C=CCSSC=CC[S+]([O-])CC=C (mixture of isomers) [Ajoene] | 188.45 ± 15.6
O=C1O[C@H]2[C@@H]3OC(=O)c4cc(O)c(O)c(O)c4-c4c(O)c(O)c5oc(=O)c6c(c(O)c(O)c7oc(=O)c4c5c76)-c4c(cc(O)c(O)c4O)C(=O)OC[C@H]3OC(O)[C@@H]2OC(=O)c2cc(O)c(O)c(O)c2-c2c1cc(O)c(O)c2O (mixture of isomers) [Punicalagin] | 146.44 ± 16.4
Oc1ccc(C=Cc2cc(O)cc(O)c2)cc1 [Resveratrol] | 198.44 ± 18.9
epigallocatechin-3-gallate [EGCG] | 145.11 ± 17.8
C[S+]([O-])CCCCN=C=S (centres unmarked) [Sulforaphan] | 195.80 ± 21.2

Reference: US20160338971A1, “NANO CO-ENCAPSULATION FOR THE PREVENTION AND TREATMENT OF VARIOUS DISORDERS” (priority 2015, published 2016)
